{
  "source": "patent US9750756B2",
  "about": "“Celecoxib compositions” (Pfizer Inc., priority 1998, dated 2017)",
  "experiment": "Effect of food study (Example 17)",
  "type": "in vivo, human",
  "conditions": "healthy adult subjects, single 50 mg or 100 mg capsule doses, fasting or fed",
  "experimental": "An open-label randomized, single dose, four-way crossover study was employed to evaluate the dose proportionality and the effect of food on the pharmacokinetic profile of celecoxib in healthy adult subjects. Safety was assessed based on adverse events, vital signs and clinical laboratory tests. Twenty four healthy adult subjects were randomized to receive the following single doses of celecoxib: (A) a 50 mg dose capsule under fasting conditions, (B) a 50 mg dose capsule immediately following a high fat breakfast, (C) a 100 mg dose capsule under fasting conditions, and (D) a 100 mg dose capsule immediately following a high fat breakfast. The subjects received the study medication on days 1, 8, 15 and 22 in one of four treatment sequences (ADBC; BACD; CBDA; and DCAB). The specific composition of the 100 mg dose capsule is disclosed in Example 1. The specific composition of the 50 mg dose capsule is disclosed in Table 17A below:\nBlood samples were collected at −0.25 (predose), 0.5, 1, 1.5, 2, 3, 4, 6, 8, 12, 16, 24, 36 and 48 hours post dose. Analyses of the separated plasma were performed at PPD Pharmaco, Richmond, Va. Celecoxib plasma concentrations were determined using a validated high performance liquid chromatography (“HPLC”) procedure with a lower limit of detection of 10.0 ng/ml. […] All adverse events were mild in severity.",
  "data": [
    {"smiles": "Cc1ccc(-c2cc(C(F)(F)F)nn2-c2ccc(S(N)(=O)=O)cc2)cc1", "note": "[celecoxib, 4-[5-(4-methylphenyl)-3-(trifluoromethyl)-1H-pyrazol-1-yl]benzenesulfonamide]", "values": [
      {"measurement": "changes in vital signs or physical examinations", "result": "no clinically significant changes"},
      {"measurement": "severity of adverse events", "result": "mild"}
    ]}
  ]
}
